Patent US8802597B2, “Herbicidal pyrimidines” (E I du Pont de Nemours and Company, priority 2003, dated 2014)
Where two headings read alike, the source gives them in different places.

Legend:
Assay in all cases: Test C pre/postemergence
Type in all cases: in vivo
[1] = tested on: Surinam grass (Brachiaria decumbens); conditions: Urochloa decumbens; for pest or weed control at 125 g/ha: 125 g ai/ha; for pest or weed control at 31 g/ha: 31 g ai/ha; for pest or weed control at 62 g/ha: 62 g ai/ha; for pest or weed control at 250 g/ha: 250 g ai/ha
Procedure, shortened: (§1)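 Visual injury ratings, 0 (no effect) to 100 (complete control), made 12 to 14 days after treatment by comparison with untreated controls. Greenhouse plants received test chemical in a surfactant-containing non-phytotoxic solvent, either preemergence on planted seeds or postemergence at the 1- to 4-leaf stage.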

[2] = tested on: bermudagrass (Cynodon dactylon); conditions: Cynodon dactylon; for pest or weed control at 31 g/ha: 31 g ai/ha; for pest or weed control at 62 g/ha: 62 g ai/ha; for pest or weed control at 125 g/ha: 125 g ai/ha; for pest or weed control at 250 g/ha: 250 g ai/ha
Procedure, shortened: as §1

[3] = tested on: cocklebur (Xanthium strumarium); conditions: Xanthium strumarium; for pest or weed control at 31 g/ha: 31 g ai/ha; for pest or weed control at 62 g/ha: 62 g ai/ha; for pest or weed control at 125 g/ha: 125 g ai/ha; for pest or weed control at 250 g/ha: 250 g ai/ha
Procedure, shortened: as §1

[4] = tested on: common (oilseed) sunflower (Helianthus annuus); conditions: Helianthus annuus, pre-emergence, Preemergence, read-out: Plant response rating, Sunflower
Procedure, shortened: as §1

[5] = tested on: common ragweed (Ambrosia elatior); conditions: Ambrosia artemisiifolia; for pest or weed control at 31 g/ha: 31 g ai/ha; for pest or weed control at 62 g/ha: 62 g ai/ha; for pest or weed control at 125 g/ha: 125 g ai/ha; for pest or weed control at 250 g/ha: 250 g ai/ha
Procedure, shortened: as §1

corn (Zea mays) = conditions: Zea mays; for Corn plant response rating (crop injury, 0 = no effect, 100 = complete kill) at 31 g/ha: 31 g ai/ha; for Corn plant response rating (crop injury, 0 = no effect, 100 = complete kill) at 62 g/ha: 62 g ai/ha; for Corn plant response rating (crop injury, 0 = no effect, 100 = complete kill) at 125 g/ha: 125 g ai/ha; for Corn plant response rating (crop injury, 0 = no effect, 100 = complete kill) at 250 g/ha: 250 g ai/ha
Procedure, shortened: as §1

[6] = post-emergence, Postemergence, scale 0 to 100 (0 no effect, 100 complete control), read-out: Surinam Grass plant response rating
[7] = pre-emergence, Preemergence, scale 0 to 100, 0 no effect, 100 complete control, read-out: Plant response rating, Surinam Grass
[8] = pre-emergence, Preemergence, scale 0 to 100, read-out: Plant response rating, Surinam Grass
[9] = post-emergence, Postemergence, scale 0 to 100 (0 no effect, 100 complete control), read-out: Bermudagrass plant response rating
[10] = pre-emergence, Preemergence, scale 0 to 100, 0 no effect, 100 complete control, read-out: Plant response rating, Bermudagrass
[11] = pre-emergence, Preemergence, scale 0 to 100, read-out: Plant response rating, Bermudagrass
[12] = post-emergence, Postemergence, scale 0 to 100 (0 no effect, 100 complete control), read-out: Cocklebur plant response rating
[13] = pre-emergence, Preemergence, scale 0 to 100, 0 no effect, 100 complete control, read-out: Plant response rating, Cocklebur
[14] = pre-emergence, Preemergence, scale 0 to 100, read-out: Plant response rating, Cocklebur
[15] = post-emergence, Postemergence, scale 0 to 100 (0 no effect, 100 complete control), read-out: Ragweed plant response rating
[16] = pre-emergence, Preemergence, scale 0 to 100, 0 no effect, 100 complete control, read-out: Plant response rating, Ragweed
[17] = pre-emergence, Preemergence, scale 0 to 100, read-out: Plant response rating, Ragweed
[18] = post-emergence, Postemergence, scale 0 to 100 (0 no effect, 100 complete control), read-out: Corn plant response rating
[19] = pre-emergence, Preemergence, scale 0 to 100, 0 no effect, 100 complete control, read-out: Plant response rating, Corn

Structure (SMILES): CCOC(=O)c1nc(C2CC2)nc(N)c1F [Compound 30]
- pest or weed control at 125 g/ha [1, 6]: 0%
- pest or weed control at 31 g/ha ([1]; post-emergence, Postemergence, read-out: Plant response rating (scale of 0 to 100), Surinam Grass): 0%
- pest or weed control at 62 g/ha [1, 6]: 0%
- pest or weed control at 250 g/ha ([1]; post-emergence, Postemergence, scale 0 to 100, read-out: Plant response rating, Surinam Grass): 35%
- pest or weed control at 31 g/ha [1, 7]: 0%
- pest or weed control at 62 g/ha [1, 7]: 0%
- pest or weed control at 125 g/ha [1, 8]: 0%
- pest or weed control at 250 g/ha [1, 8]: 20%
- pest or weed control at 31 g/ha ([2]; post-emergence, Postemergence, read-out: Plant response rating (scale of 0 to 100), Bermudagrass): 0%
- pest or weed control at 62 g/ha [2, 9]: 0%
- pest or weed control at 125 g/ha [2, 9]: 5%
- pest or weed control at 250 g/ha ([2]; post-emergence, Postemergence, scale 0 to 100, read-out: Plant response rating, Bermudagrass): 5%
- pest or weed control at 31 g/ha [2, 10]: 0%
- pest or weed control at 62 g/ha [2, 10]: 0%
- pest or weed control at 125 g/ha [2, 11]: 0%
- pest or weed control at 250 g/ha [2, 11]: 0%
- pest or weed control at 31 g/ha ([3]; post-emergence, Postemergence, read-out: Plant response rating (scale of 0 to 100), Cocklebur): 90%
- pest or weed control at 62 g/ha [3, 12]: 95%
- pest or weed control at 125 g/ha [3, 12]: 100%
- pest or weed control at 250 g/ha ([3]; post-emergence, Postemergence, scale 0 to 100, read-out: Plant response rating, Cocklebur): 100%
- pest or weed control at 31 g/ha [3, 13]: 0%
- pest or weed control at 62 g/ha [3, 13]: 60%
- pest or weed control at 125 g/ha [3, 14]: 85%
- pest or weed control at 250 g/ha [3, 14]: 90%
- pest or weed control at 31 g/ha ([4]; 31 g ai/ha, scale 0 to 100, 0 no effect, 100 complete control): 20%
- pest or weed control at 62 g/ha ([4]; 62 g ai/ha, scale 0 to 100, 0 no effect, 100 complete control): 80%
- pest or weed control at 125 g/ha ([4]; 125 g ai/ha, scale 0 to 100): 90%
- pest or weed control at 250 g/ha ([4]; 250 g ai/ha, scale 0 to 100): 90%
- pest or weed control at 31 g/ha ([5]; post-emergence, Postemergence, read-out: Plant response rating (scale of 0 to 100), Ragweed): 60%
- pest or weed control at 62 g/ha [5, 15]: 80%
- pest or weed control at 125 g/ha [5, 15]: 85%
- pest or weed control at 250 g/ha ([5]; post-emergence, Postemergence, scale 0 to 100, read-out: Plant response rating, Ragweed): 90%
- pest or weed control at 31 g/ha [5, 16]: 30%
- pest or weed control at 62 g/ha [5, 16]: 85%
- pest or weed control at 125 g/ha [5, 17]: 90%
- pest or weed control at 250 g/ha [5, 17]: 100%
- Corn plant response rating (crop injury, 0 = no effect, 100 = complete kill) at 31 g/ha (corn (Zea mays); post-emergence, Postemergence, read-out: Plant response rating (scale of 0 to 100), Corn): 0%
- Corn plant response rating (crop injury, 0 = no effect, 100 = complete kill) at 62 g/ha (corn (Zea mays); [18]): 0%
- Corn plant response rating (crop injury, 0 = no effect, 100 = complete kill) at 125 g/ha (corn (Zea mays); [18]): 0%
- Corn plant response rating (crop injury, 0 = no effect, 100 = complete kill) at 250 g/ha (corn (Zea mays); post-emergence, Postemergence, scale 0 to 100): 50%
- Corn plant response rating (crop injury, 0 = no effect, 100 = complete kill) at 31 g/ha (corn (Zea mays); [19]): 0%
- Corn plant response rating (crop injury, 0 = no effect, 100 = complete kill) at 62 g/ha (corn (Zea mays); [19]): 0%
- Corn plant response rating (crop injury, 0 = no effect, 100 = complete kill) at 125 g/ha (corn (Zea mays); pre-emergence, Preemergence, scale 0 to 100, read-out: Plant response rating, Corn): 0%
- Corn plant response rating (crop injury, 0 = no effect, 100 = complete kill) at 250 g/ha (corn (Zea mays); pre-emergence, Preemergence, scale 0 to 100): 0%
